Test results: patent publication US20220009976A1, “Peptide Possessing Mesenchymal-Stem-Cell Mobilizing Activity” (StemRIM Inc., priority 2018, published 2022)

Legend:
mesenchymal stem cells [1] = assay: Solid-phase culture of peripheral blood after administration of HMGB1 peptide 1-44 (earlier experiments of the inventors); format: in vivo; conditions: vs peripheral blood after administration of physiological saline
Excerpt: In addition, the colonies obtained as a result of culturing, on a solid phase, peripheral blood after administration of a peptide consisting of amino acid residues 1-44 of the human HMGB1 protein (hereinafter, HMGB1 peptide 1-44), which has an activity of mobilizing mesenchymal stem cells into peripheral blood, have been confirmed to have adherability to solid phase and self-renewal ability, and to be PDGFRα positive. They have also been confirmed to have a gene expression profile characteristic to mesenchymal stem cells, based on the results of clustering the transcriptome analysis data and performing gene ontology analysis.
Furthermore, it has been confirmed that the number of colonies obtained by solid-phase culture is larger in the peripheral blood after administration of HMGB1 peptide 1-44 than in the peripheral blood after administration of physiological saline.
Therefore, the colonies obtained as a result of culturing peripheral blood on a solid phase are mesenchymal stem cells, and it is considered that an increase in the number of colonies detected in a solid phase culture of peripheral blood indicates an increase in the number of mesenchymal stem cells in the peripheral blood.

[2] = tested on: atopic dermatitis model mice; assay: Efficacy in MC903-induced atopic dermatitis (AD) model mice; format: in vivo, C57BL/6 mice
Excerpt: MC903 (generic name: Calcipotriol) was used to induce atopic dermatitis (hereinafter, also referred to as “AD”) in mice. In addition, the peptide 1r10 (TFA salt) described in Example 1 was used as the test substance.
C57BL/6 mice (C57BL/6JJcl, 7-8 weeks old, male, microbial grade SPF) were obtained from Japan Claire Co., Ltd., acclimated in the animal breeding room for 5 days or more, and then subjected to the following experiments. An ethanol-adjusted MC903 solution was applied to the skin of the auricle of the mice at a dose of 2.25 nmol MC903/ear/once/day five times a week for 2 weeks (ten times in total) to induce atopic dermatitis (AD). This MC903-induced AD model is a model in which AD-like pathology can be reproduced in a short period of time (1-2 weeks) by artificially inducing the secretion of TSLP from epithelial cells, which is actually seen in AD patients, thereby eliciting a series of type 2 immune response cascades (Li M et al., Proc Natl Acad Sci USA. 2006; 103:11736-41).
They were then divided into the control group and the peptide administration group (n=7 in each group), while the groups were equalized based on the auricle thickness in consideration of the difference in the severity of inflammation between individuals. For peptide administration, the solution of peptide 1r10 adjusted to 0.3 mg/mL with physiological saline was injected into the tail vein at a volume of 5 mL/kg (peptide dose of 1.5 mg/kg) twice in total, once on the grouping day (Day 15) and once during the following 4 days (Day 16 to Day 19). For the control group a solution of bovine serum albumin (BSA) adjusted to 0.3 mg/mL with physiological saline was injected into the tail vein at a volume of 5 mL/kg (BSA dose of 1.5 mg/kg) twice in total, once on the grouping day (Day 15) and once during the following 4 days (Day 16 to Day 19).
During the peptide administration period (Day 15 to Day 19), ear swellings were measured daily to determine edema. Scaling, which is the main symptom of AD, was determined by photography (three times a week) using a digital camera (E-M1 II; Olympus) from a fixed base at a height of 13-14 cm from the auricle.
On the 4th day (Day 19) after the start of peptide administration, mice were placed under the influence of isoflurane anesthesia and euthanized with cervical spine dislocation. The skin at auricular inflammation site and its surroundings was quickly excised and collected while on ice to prevent protein denaturation of the sample. After removing excess hair and skin with tweezers, the collected auricular skin was immersed in 10% formalin and fixed at 4° C. overnight while shaking on ice using a shaker. After fixation, the skin was thoroughly washed with phosphate buffered saline (PBS) and trimmed, and then a paraffin block was made using an automatic embedding device (Excelsior ES; Thermo Scientific) with attention to the tissue polarity in the dorsoventral axis/left-right axis specific to the skin). Then, it was sliced (5 μm thick) with a rotary microtome (HM 325; Thermo Scientific), fixed on a slide glass, and subjected to various staining. As pathological analysis, skin thickness and infiltration of immune cells were evaluated by histochemical staining and fluorescent immunostaining, respectively.
To quantitatively evaluate the healing condition of the site of inflammation, hematoxylin-eosin (HE) staining of the paraffin thin sections (5 μm thick) of skin tissue generated as described above was performed to measure the dermal thickness. Specifically, three sections were prepared for each individual, and each section was photographed with a microscope (Keyence BZ-X710) at one site each of the center of inflammation, head side, and tail side (that is, a total of 9 sites were photographed per individual). […]

mesenchymal stem cells [3] = assay: Colony assay of peripheral blood collected after peptide administration (mobilization of mesenchymal stem cells into peripheral blood); format: in vivo, C57BL/6J mice; conditions: 4 mg/kg tail vein; blood collected 14 hours after administration; 10 days culture; colonies of 50 or more cells; vs physiological saline
Experimental: C57BL/6J mice (8 weeks old, male, body weight 25 g) were prepared and divided into a group administered with the artificial sequence peptide […] and a control group. The peptide was administered by injecting into the tail vein, a solution of peptide 1r10 adjusted to a concentration of […] using physiological saline as a solvent in an amount of 100 μL/animal (4 mg/kg dose of peptide). For the control group, physiological saline was injected into the tail vein in an amount of 100 μL/animal. […]
The supernatant (sample containing peripheral blood-derived cells) obtained by the above procedure was seeded on collagen I-coated 6-well plates (Corning, Cat No. 356400), and cultured for 10 days under the conditions of 37° C., 5% CO2 and 5% O2, using a medium containing Expansion Medium prepared using the MesenCult Expansion Kit (STEMCELL Technologies, Cat No. ST-05513) according to the manual of the kit, 1% L-glutamine (Nacalai Tesque Inc.), 10 μM ROCK inhibitor (Y27632, Tocris Bioscience) and 1% penicillin/streptomycin (Nacalai Tesque Inc.) (all numerical values are final concentrations). […] On the 10th day of culture, cells on the plates were stained with a Differential Quik Stain Kit (Sysmex Corporation, Cat No. 16920), and the number of colonies containing 50 or more cells was counted. […]

[4] = tested on: cerebral infarction model rat; assay: Efficacy in cerebral infarction model rat (right MCA occlusion); format: in vivo, Crl:CD (SD) rats; conditions: 2 mg/kg tail vein at 105 minutes and 24 hours after right MCA occlusion; 48 hours after occlusion; p<0.01 vs control 34.1±1.1%
Excerpt: Crl:CD (SD) rats (7 weeks old, male) were obtained from Charles River Laboratories, Japan, and after 6 days of acclimation, they were divided into the control group (n=8) and the peptide-administered group (n=8). On the following day of grouping, the rats were fixed in the supine position under 2% isoflurane inhalation anesthesia (anesthesia background: laughing gas:oxygen=7:3). To regulate body temperature during surgery, a thermometer probe connected to a digital thermometer was inserted into the rectum, and changes in the rectal temperature before and after surgery were monitored. […]
Forty-eight hours after the right MCA occlusion, the animals were decapitated under anesthesia with sodium pentobarbital (50 mg/kg, intraperitoneal administration), and the entire brain was excised to prepare brain sections with a thickness of 2 mm. […] The resulting photographs were subjected to image analysis to obtain actual measurements of the cerebral infarction area and cross-sectional area of the brain, and the cerebral infarct volume and the total brain volume from 4 mm anterior to bregma to 6 mm posterior to bregma were calculated using the calculation formula below. In addition, the cerebral infarction volume ratio was calculated from the cerebral infarction volume and the total volume of the brain (cerebral infarction volume ratio (%)=cerebral infarction volume/total brain volume×100).

[5] = tested on: inflammatory bowel disease (IBD) model mice; assay: Efficacy in DSS-induced inflammatory bowel disease (IBD) model mice; format: in vivo, BALB/c mice
Experimental: Dextran sodium sulfate (DSS) (molecular weight 36,000 to 50,000, manufactured by MP Biomedicals, Product No. 160110) was dissolved in purified water to prepare a 2.5% (w/v) DSS aqueous solution. In addition, the peptide 1r10 (TFA salt) described in Example 1 was used as the test substance.
BALB/c mice (9 weeks old, male) were allowed to drink the 2.5% DSS aqueous solution freely for 7 days to induce colitis. After that, the drinking was changed from DSS to tap water, and the large intestine was collected 3 days later (10 days after the start of drinking the DSS aqueous solution).
The IBD model mice prepared as described above were divided into the peptide 1r10 administration group (n=8) and the control group (n=8). Peptide administration was carried out by injecting into the tail vein, the peptide 1r10 solution adjusted to a concentration of 0.5 mg/mL using physiological saline as a solvent at an amount of 10 mL/kg on Days 1, 4, 7, 8 and 9 after the start of drinking the DSS aqueous solution (peptide dose of 5 mg/kg). The control group was injected with physiological saline solution at a dose of 10 mL/kg into the tail vein on Days 1, 4, 7, 8 and 9 after the start of drinking the DSS aqueous solution.
For 10 days from the start of drinking the DSS aqueous solution, the mice were weighed and observed for the symptoms (stool condition and bleeding) every day except Saturdays, Sundays, and holidays, and the degree of symptoms was evaluated by calculating the DAI (disease activity index) score. The DAI score was calculated by scoring the weight loss rate, stool condition, and stool bleeding as shown in the table below, and summing the scores of these three items. The scoring criteria were partly based on the method of Li et al. (PLoS One. 2015 Dec. 7; 10 (12): e0144101).
In addition, the length of the large intestine (from the colon to the rectum) collected 10 days after the start of drinking DSS was measured using a digital caliper.

[6] = 5 mg/kg tail vein, 8 to 10 days after the start of drinking DSS, vs control group

Substance | number of colonies obtained by solid-phase culture of peripheral blood (mesenchymal stem cells [1]) | dermis thickness ([2]; 1.5 mg/kg tail vein twice, 4th day (Day 19) after start of administration, HE staining, vs control group) | scaling in the auricle ([2]; 1.5 mg/kg tail vein twice, 4 days after start of peptide administration, vs control group (BSA)) | auricular thickness (edema) ([2]; 1.5 mg/kg tail vein twice, Day 15 to Day 19, vs control group (BSA)) | number of CD45-positive cells in auricular skin sections ([2]; 1.5 mg/kg tail vein twice, Day 19, per high-power field (400×), vs control group) | changes in mouse body weight during the period of the study ([2]; Day 15 to Day 19, between the groups, p>0.05, repeated one-way ANOVA) | dermis thickness ([2]; dose of 0.5 mg/kg, vs control group, data not shown) | number of colonies obtained on the plate by culturing the peripheral blood-derived cells (mesenchymal stem cells [3]) | cerebral infarction volume ratio (mean±standard error) [4] [%] | body weight 10 days after the start of drinking the DSS aqueous solution ([5]; 5 mg/kg tail vein on Days 1, 4, 7, 8 and 9, Day 10) | changes in mouse body weight (degree of decrease) ([5]; 5 mg/kg tail vein on Days 1, 4, 7, 8 and 9 after start of drinking DSS, vs control group (saline)) | DAI (disease activity index) score [5, 6] | stool score (sum of stool condition score and bleeding score) [5, 6] | colon length ([5]; 5 mg/kg tail vein, ten days after the start of drinking DSS, vs control group)
HMGB1 peptide 1-44: peptide consisting of amino acid residues 1-44 of the human HMGB1 protein, which has an activity of mobilizing mesenchymal stem cells into peripheral blood (MGKGDPKKPRGKMSSYAFFVQTCREEHKKKHPDASVNFSEFSKK; UniProt P09429 1-44, looked up, fragment) | larger |  |  |  |  |  |  |  |  |  |  |  |  | 
peptide 1r10: artificial sequence peptide consisting of the amino acid sequence of SEQ ID NO: 1, chemically synthesized (IMWLCQYFFQCHKCAVKKKTWKEKKDRRHP) |  | statistically significant decrease | reduction of scaling | statistically significant reduction | statistically significant decrease | not significantly different | statistically significant decrease | larger | 27.2±1.2 | tendency to recover body weight | slower | lower | lower | longer
